This is an account of results in US7476649B2, “Antiproliferative and antiviral proteins and peptides” (priority 1998, dated 2009).

Data set [1] concerns human embryonic lung cell line MRC-5.
For data set [2], the system named is type 1 herpes (HSV-1), strain McKrae. The format is cell-based, Herpes Simplex Type I.
Data set [3] has the same test system. It is filed as cell-based, Herpes Simplex Type I. The source holds these as a separate data set.
The subject of data set [4] is African green monkey cells (CV-1).
For data set [5] the test system is unchanged. This is another data set of the same source.
The subject of data set [6] is San Angelo (SAV). It is filed as cell-based, San Angelo virus.
Data set [7] in a line: in vitro. As to conditions: African green monkey.
A short description of data set [8]: in vitro. As to conditions: African green monkey. The source holds these as a separate data set.
Data set [9] is described as follows: in vitro. As to conditions: African green monkey. The source holds these as a separate data set.
Data set [10] relates to San Angelo (SAV). The data set can be described thus: microbe, parasite or virus in culture. The format is cell-based, San Angelo virus.
Data set [11] is described as follows: in vitro. As to conditions: African green monkey. The source holds these as a separate data set.

In brackets after ≈: the same amount, converted by molar mass. Like-named read-outs stand apart in the source and are kept apart here.

Turning to `Nc1nc2c(ncn2COCCO)c(=O)[nH]1` [Acyclovir, acyclovir], the CC50 in data set [1] was >100 µg/mL. Moreover, the “COMMENT (activity)” value in data set [2] and in data set [3] was “Excellent activity” in each case.
On to `Nc1ccn(C[C@@H](CO)OCP(=O)(O)O)c(=O)n1` [HPMPC, cidofovir], for which the CC50 in data set [4] and in data set [5] was >100 µg/mL each time.
Turning to `NC(=O)c1ncn([C@@H]2O[C@H](CO)[C@@H](O)[C@H]2O)n1` [Ribavirin, ribavirin], the “COMMENT (activity)” value in the data set with San Angelo (SAV) [6] and in the data set with San Angelo (SAV) [10] was “Very good activity” in each case. Moreover, the CC50 in the data set “in vitro [7]”, in “in vitro [8]”, in the data set “in vitro [9]” and in “in vitro [11]” was > 100 µg/mL each time. Moreover, the EC50 with San Angelo (SAV) [10] (San Angelo virus, Vero) was 30 µg/mL (≈ 123 µM).

By EC50 is commonly meant the concentration at which the effect is half-maximal.
